Values quoted from earlier work in patent US20080152709A1, “CLONIDINE COMPOSITION AND METHOD OF USE” (DRUGTECH CORPORATION, priority 2006, published 2008).
Counter-ions that a name gives are not always drawn. Like-named read-outs stand apart in the source and are kept apart here.

Experiments:
[1] = oral 0.075 mg twice daily for three days; third day
[2] = administered orally
[3] = system: patients with morning hypertension; details: once daily in the evening, added to pre-existing antihypertensive regimen
[4] = once daily oral 0.25 and 0.5 mg, sustained-release formulation
[5] = not given; remark: listed apart in the source
[6] = oral administration of 0.3 mg
[7] = not given; remark: listed apart in the source
[8] = single oral dose of 0.3 mg clonidine hydrochloride
[9] = single oral dose of 0.3 mg, all subjects

SMILES | peak clonidine concentration [1] | absorption from the gastrointestinal tract [2] | morning blood pressure [3] | effect on diastolic blood pressure (0.1 mg administered at 4 pm or 8 pm) | effect on diastolic blood pressure (0.1 mg administered at 6 am or 12 noon) | 24-hour antihypertensive efficacy [4] | peak clonidine concentration (Cmax) ([5]; single oral dose 0.075 mg) | plasma concentration 24 hours after administration ([5]; single oral dose 0.075 mg) | peak clonidine concentration (Cmax) ([5]; single oral dose 0.15 mg) | plasma concentration 24 hours after administration ([5]; single oral dose 0.15 mg) | peak clonidine concentration (Cmax) ([5]; single oral dose 0.25 mg) | plasma concentration 24 hours after administration ([5]; single oral dose 0.25 mg) | peak plasma clonidine concentration [6] | mean maximum plasma concentration [7, 8] | time of mean maximum concentration after administration [7, 8] | plasma concentration at 24 hours ([7]; single oral dose of 0.3 mg clonidine hydrochloride, 24 hours) | salivary flow (dry mouth symptoms) [7, 9] | sedation [7, 9]
Clc1cccc(Cl)c1NC1=NCCN1 [clonidine, N-(2,6-dichlorophenyl)-4,5-dihydro-1H-imidazol-2-amine] | 0.39 ng/mL | almost completely absorbed | effective in reducing morning blood pressure | not | reduced diastolic blood pressure | Reduction in blood pressure was observed throughout the 24 hours | 0.28 ng/mL | 0.06 ng/mL | 0.61 ng/mL | 0.07 ng/mL | 1.16 ng/mL | 0.34 ng/mL | 1.34 ng/mL |  |  |  |  | 
Clc1cccc(Cl)c1N=C1NCCN1 [clonidine hydrochloride] |  |  |  |  |  |  |  |  |  |  |  |  |  | 1.35 ng/mL | 1 h | below 0.5 ng/ml | marked reduction in salivary flow | markedly sedated
